EP4796538A1, “NOVEL QUINOXALINE COMPOUNDS, MANUFACTURING METHOD THEREOF, AND USES THEREOF” (Gachon University of Industry-Academic Cooperation …, priority 2023, dated 2025)
Like-named read-outs stand apart in the source and are kept apart here.

How the values were obtained:
[1] = biological target: T1, RET(G810R) (Homo sapiens, UniProt P07949, G810R); assay: Kinase panel inhibition, radiolabeled [γ-33P] ATP (Reaction Biology Corp); format: biochemical; details: ATP 10 µM, read-out: % Enzyme Activity (relative to DMSO controls) G810R; for remaining activity at 0.1 µM: compound at 0.1 uM; for remaining activity at 1 µM: compound at 1 uM
T1 construct: purchased Reaction Biology Corp
T1 sequence (P07949 29-1114 G810R): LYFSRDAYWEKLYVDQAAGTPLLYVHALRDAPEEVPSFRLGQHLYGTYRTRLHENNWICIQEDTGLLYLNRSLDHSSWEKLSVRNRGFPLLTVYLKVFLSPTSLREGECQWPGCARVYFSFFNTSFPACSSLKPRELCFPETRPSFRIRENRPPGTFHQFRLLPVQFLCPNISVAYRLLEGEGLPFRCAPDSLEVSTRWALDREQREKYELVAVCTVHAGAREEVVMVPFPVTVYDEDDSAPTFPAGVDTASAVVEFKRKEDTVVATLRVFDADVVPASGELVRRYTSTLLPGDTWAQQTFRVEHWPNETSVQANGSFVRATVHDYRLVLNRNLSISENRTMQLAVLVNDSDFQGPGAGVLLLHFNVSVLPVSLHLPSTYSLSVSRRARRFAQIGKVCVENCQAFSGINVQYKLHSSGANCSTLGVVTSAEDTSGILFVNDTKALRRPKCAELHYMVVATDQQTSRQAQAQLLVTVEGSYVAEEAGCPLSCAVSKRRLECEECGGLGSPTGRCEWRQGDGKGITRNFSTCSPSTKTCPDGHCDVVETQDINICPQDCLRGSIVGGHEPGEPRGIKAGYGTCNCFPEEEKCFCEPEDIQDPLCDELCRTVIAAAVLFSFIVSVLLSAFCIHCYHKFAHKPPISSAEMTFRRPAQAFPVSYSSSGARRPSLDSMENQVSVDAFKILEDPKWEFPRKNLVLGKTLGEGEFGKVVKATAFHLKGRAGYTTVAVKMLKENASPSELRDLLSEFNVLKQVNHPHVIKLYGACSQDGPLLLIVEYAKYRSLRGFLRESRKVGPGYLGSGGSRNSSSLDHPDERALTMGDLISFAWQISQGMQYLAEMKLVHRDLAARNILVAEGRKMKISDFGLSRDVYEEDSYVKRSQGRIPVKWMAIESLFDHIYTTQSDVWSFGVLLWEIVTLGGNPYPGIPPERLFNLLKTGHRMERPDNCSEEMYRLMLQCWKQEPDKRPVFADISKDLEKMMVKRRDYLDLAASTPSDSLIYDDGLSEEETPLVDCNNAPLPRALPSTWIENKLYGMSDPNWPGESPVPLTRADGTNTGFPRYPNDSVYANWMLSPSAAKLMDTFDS

[2] = test system: A-549; assay: Cell proliferation inhibition, Cell Counting Kit-8, non-small cell lung cancer cell line; format: cell-based; details: A-549 cell line; 72 hours incubation; test concentration not given
[3] = biological target: T2, RET (G810S/M918T) (Homo sapiens, UniProt P07949, G810S/M918T); assay: Kinase panel inhibition, radiolabeled [γ-33P] ATP (Reaction Biology Corp); format: biochemical; details: ATP 1 µM; for remaining activity at 10 µM: compound at 10 uM; for remaining activity at 30 µM: compound at 30uM
T2 construct: purchased Reaction Biology Corp
T2 sequence (P07949 29-1114 G810S/M918T): as the sequence (P07949 29-1114 G810R) above, with R782S, M890T counted along it

[4] = biological target: T3, RET-CCDC6 (PTC1) (Homo sapiens, UniProt P07949); assay: as above; format: biochemical; details: compound at 10 uM, ATP 1 µM
T3 construct: purchased Reaction Biology Corp
T3 sequence (P07949 whole entry, looked up): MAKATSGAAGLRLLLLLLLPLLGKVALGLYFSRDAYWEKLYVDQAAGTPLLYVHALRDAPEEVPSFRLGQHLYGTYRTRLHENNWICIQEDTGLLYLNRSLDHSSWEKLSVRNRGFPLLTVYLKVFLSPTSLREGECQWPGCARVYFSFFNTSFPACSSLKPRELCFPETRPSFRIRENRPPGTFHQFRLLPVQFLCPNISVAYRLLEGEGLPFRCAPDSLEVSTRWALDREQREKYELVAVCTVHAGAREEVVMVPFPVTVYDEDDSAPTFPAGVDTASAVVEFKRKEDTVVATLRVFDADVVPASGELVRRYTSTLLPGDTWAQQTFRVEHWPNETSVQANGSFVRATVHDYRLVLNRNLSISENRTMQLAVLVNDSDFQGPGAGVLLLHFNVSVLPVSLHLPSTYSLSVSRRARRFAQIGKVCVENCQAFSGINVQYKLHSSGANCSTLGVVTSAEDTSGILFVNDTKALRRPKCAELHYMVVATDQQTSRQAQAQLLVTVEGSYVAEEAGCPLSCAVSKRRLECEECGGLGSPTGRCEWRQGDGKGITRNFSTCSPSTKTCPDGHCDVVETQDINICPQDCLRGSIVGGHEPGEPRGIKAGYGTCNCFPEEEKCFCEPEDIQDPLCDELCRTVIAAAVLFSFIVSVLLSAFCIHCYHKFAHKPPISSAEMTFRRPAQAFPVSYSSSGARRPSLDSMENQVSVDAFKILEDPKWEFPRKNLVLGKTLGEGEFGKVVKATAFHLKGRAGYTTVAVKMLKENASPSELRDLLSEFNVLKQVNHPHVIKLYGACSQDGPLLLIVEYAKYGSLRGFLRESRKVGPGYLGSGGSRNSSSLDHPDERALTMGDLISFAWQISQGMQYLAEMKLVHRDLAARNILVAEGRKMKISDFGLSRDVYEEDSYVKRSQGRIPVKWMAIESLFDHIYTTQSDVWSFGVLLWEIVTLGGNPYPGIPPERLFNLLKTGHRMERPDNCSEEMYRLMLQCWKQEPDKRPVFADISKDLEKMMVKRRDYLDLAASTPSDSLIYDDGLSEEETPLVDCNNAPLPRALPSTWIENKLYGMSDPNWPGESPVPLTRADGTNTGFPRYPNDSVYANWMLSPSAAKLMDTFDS

[5] = biological target: T4, RET (Homo sapiens, UniProt P07949); assay: as above; format: biochemical; details: compound at 1 uM; ATP 10 µM; read-out: % Enzyme Activity (relative to DMSO controls) RET
T4 construct: purchased Reaction Biology Corp
T4 sequence (P07949 29-1114): as the sequence (P07949 29-1114 G810R) above, with R782G counted along it

[6] = biological target: T5, RET(V804M) (Homo sapiens, UniProt P07949, V804M); assay: as above; format: biochemical; details: ATP 10 µM, read-out: % Enzyme Activity (relative to DMSO controls) V804M; for remaining activity at 1 µM: compound at 1 uM; for remaining activity at 0.1 µM: compound at 0.1 uM
T5 construct: purchased Reaction Biology Corp
T5 sequence (P07949 29-1114 V804M): as the sequence (P07949 29-1114 G810R) above, with V776M, R782G counted along it

[7] = test system: BaF3 KIF5B-RET (G810R); assay: Cell proliferation inhibition, Cell Counting Kit-8, Ba/F3 cell line; format: cell-based, rodent; details: Mus musculus, 72 hours incubation, read-out: Cell Viability of BaF3 Cell lines (IC50 in uM) KIF5B-RET (G810R)
[8] = biological target: T6, RET(V804M)-KIF5B (Homo sapiens, UniProt P07949, V804M); assay: Kinase panel inhibition, radiolabeled [γ-33P] ATP (Reaction Biology Corp); format: biochemical; details: compound at 0.1 uM; ATP 10 µM; read-out: % Enzyme Activity (relative to DMSO controls) RET (V804M )-KIF5B
T6 sequence (P07949 713-1114 V804M): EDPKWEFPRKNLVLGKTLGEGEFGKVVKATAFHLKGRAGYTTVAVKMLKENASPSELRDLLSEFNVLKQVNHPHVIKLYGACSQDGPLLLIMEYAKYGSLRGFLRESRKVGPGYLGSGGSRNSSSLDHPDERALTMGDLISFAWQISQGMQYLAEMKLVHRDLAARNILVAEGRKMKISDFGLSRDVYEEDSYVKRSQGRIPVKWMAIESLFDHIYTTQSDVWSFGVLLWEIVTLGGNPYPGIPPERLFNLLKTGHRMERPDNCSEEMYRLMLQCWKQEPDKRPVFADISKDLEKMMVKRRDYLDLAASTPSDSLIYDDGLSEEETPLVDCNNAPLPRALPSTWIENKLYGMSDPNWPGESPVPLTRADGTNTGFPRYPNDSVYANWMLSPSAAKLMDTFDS
T6 sequence (P33176 2-575 partner): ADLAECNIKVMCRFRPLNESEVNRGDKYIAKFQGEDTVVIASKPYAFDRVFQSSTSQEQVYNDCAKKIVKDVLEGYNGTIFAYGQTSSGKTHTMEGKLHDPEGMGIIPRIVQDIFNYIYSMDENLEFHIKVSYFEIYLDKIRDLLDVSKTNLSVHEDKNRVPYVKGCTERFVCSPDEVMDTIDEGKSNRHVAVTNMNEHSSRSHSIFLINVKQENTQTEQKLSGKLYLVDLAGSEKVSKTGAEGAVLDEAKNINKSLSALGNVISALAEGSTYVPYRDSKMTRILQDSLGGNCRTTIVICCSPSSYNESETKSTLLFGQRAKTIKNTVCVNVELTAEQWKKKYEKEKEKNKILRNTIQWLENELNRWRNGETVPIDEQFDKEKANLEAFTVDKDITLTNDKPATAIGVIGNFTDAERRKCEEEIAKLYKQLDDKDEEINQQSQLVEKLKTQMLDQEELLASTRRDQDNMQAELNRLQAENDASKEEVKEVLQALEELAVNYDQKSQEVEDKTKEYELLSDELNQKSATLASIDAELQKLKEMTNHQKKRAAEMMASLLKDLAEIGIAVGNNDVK

[9] = Data 1, read-out: % Enzyme Activity (relative to DMSO controls) RET (G810S/M918T) Data 1
[10] = Data 2, read-out: % Enzyme Activity (relative to DMSO controls) RET (G810S/M918T) Data 2
[11] = Data 1, read-out: % Enzyme Activity (relative to DMSO controls) RET-CCDC6 (PTC1) Data 1
[12] = Data 2, read-out: % Enzyme Activity (relative to DMSO controls) RET-CCDC6 (PTC1) Data 2

SMILES | remaining activity at 0.1 µM [1] [%] | remaining activity at 10 µM [3, 9] [%] | remaining activity at 10 µM [3, 10] [%] | remaining activity at 10 µM [4, 11] [%] | remaining activity at 10 µM [4, 12] [%] | remaining activity at 1 µM [1] [%] | remaining activity at 1 µM [5] [%] | remaining activity at 30 µM [3, 9] [%] | remaining activity at 30 µM [3, 10] [%] | remaining activity at 1 µM [6] [%] | IC50 [7] [µM] | remaining activity at 0.1 µM [6] [%] | remaining activity at 0.1 µM [8] [%] | Cell Proliferation (% of control) [2] [%]
Nc1cc(-c2cnc(N3CC(Oc4cccc(F)c4)C3)nc2)c2nccnc2c1 [Example 29, 8-(2-(3-(3-fluorophenoxy)azetidin-1-yl)pyrimidin-5-yl)quinoxalin-6-amine] | 76.3 | 0.28 | 0.11 | 1.22 | 1.07 |  |  |  |  |  |  |  |  | 12.87
CCN(CC)c1cc(-c2ccc(N3CC(Oc4cccc(F)c4)C3)nc2)c2nccnc2c1 [Example 28, N,N-diethyl-8-(6-(3-(3-fluorophenoxy)azetidin-1-yl)pyridin-3-yl)quinoxalin-6-amine] |  |  |  |  |  | 105 | 28.3 | 4.19 | 4.35 | 16.5 | > 10 |  |  | 94.81
O=C(Nc1cc(-c2ccc(N3CC[C@H](NC(=O)c4ccccc4F)C3)nc2)c2nccnc2c1)c1ccco1 [Example 17, (S)-N-(8-(6-(3-(2-fluorobenzamido)pyrrolidin-1-yl)pyridin-3-yl)quinoxalin-6-yl)furan-2-carboxamide] |  | 11.9 | 11.9 | 1.15 | 1.33 |  |  |  |  |  |  |  |  | 48.96
O=[N+]([O-])c1cc(-c2ccc(N3CC(Oc4cccc(F)c4)C3)nc2)c2nccnc2c1 [Example 27, 5-(6-(3-(3-fluorophenoxy)azetidin-1-yl)pyridin-3-yl)-7-nitroquinoxaline] |  |  |  |  |  | 101 | 67.2 | 59.9 | 58.1 | 62.8 | > 10 |  |  | 94.57
CC(C)CNc1cc(-c2ccc(N3CC[C@H](NC(=O)c4ccccc4F)C3)nc2)c2nccnc2c1 [Example 16, (S)-2-fluoro-N-(1-(5-(7-(isobutylamino)quinoxalin-5-yl)pyridin-2-yl)pyrrolidin-3-yl)benzamide] |  | 3.39 | 3.22 | 1.21 | 1.51 |  |  |  |  |  |  |  |  | 65.29
CC(C)Nc1cc(-c2ccc(N3CC[C@H](NC(=O)c4ccccc4F)C3)nc2)c2nccnc2c1 [Example 14, (S)-2-fluoro-N-(1-(5-(7-(isopropylamino)quinoxalin-5-yl)pyridin-2-yl)pyrrolidin-3-yl)benzamide] |  | 5.08 | 4.68 | 1.04 | 0.72 |  |  |  |  |  |  |  |  | 47.83
Nc1cc(-c2ccc(N3CCOCC3)nc2)c2nccnc2c1 [Example 19, 8-(6-morpholinopyridin-3-yl)quinoxalin-6-amine] |  | 27.3 | 26.3 | 5.69 | 6.45 |  |  |  |  |  |  |  |  | 71.46
CC(C)Nc1cc(-c2ccc(N3CC(Oc4cccc(F)c4)C3)nc2)c2nccnc2c1 [Example 5, 8-(6-(3-(3-fluorophenoxy)azetidin-1-yl)pyridin-3-yl)-N-isopropylquinoxalin-6-amine] |  | 5.96 | 6.14 | 1.34 | 0.72 |  |  |  |  |  |  |  |  | 36.07

More lines, main results first:

remaining activity at 0.1 µM [1] [%] | remaining activity at 10 µM [3, 9] [%] | remaining activity at 10 µM [3, 10] [%] | remaining activity at 10 µM [4, 11] [%] | remaining activity at 10 µM [4, 12] [%] | remaining activity at 1 µM [1] [%] | remaining activity at 1 µM [5] [%] | remaining activity at 30 µM [3, 9] [%] | remaining activity at 30 µM [3, 10] [%] | remaining activity at 1 µM [6] [%] | IC50 [7] [µM] | remaining activity at 0.1 µM [6] [%] | remaining activity at 0.1 µM [8] [%] | SMILES | Cell Proliferation (% of control) [2] [%]
98.5 | 61.7 | 61.2 | 14.8 | 15.4 |  |  |  |  |  |  | 105 | 109 | CCNc1cc(C#CCN2CCOCC2)c2nccnc2c1 [Example 31, N-ethyl-8-(3-morpholinoprop-1-yn-1-yl)quinoxalin-6-amine] | 51.88
 |  |  |  |  | 104 | 71.1 | 10.3 | 9.57 | 68.3 | 0.73 |  |  | CCNc1cc(Br)c2nccnc2c1 [Intermediate Compound 18, 8-Bromo-N-ethylquinoxalin-6-amine] | 
 |  |  |  |  | 97.6 | 93.7 | 74.7 | 73 | 87.1 | > 10 |  |  | O=C(Nc1cc(Br)c2nccnc2c1)c1ccco1 [Intermediate Compound 11, N-(8-bromoquinoxalin-6-yl)furan-2-carboxamide] | 
 |  |  |  |  | 102 | 95.7 | 92.6 | 89.7 | 104 | > 10 |  |  | O=C(Nc1cc(-c2ccc(F)nc2)c2nccnc2c1)c1ccco1 [Intermediate Compound 13, N-(8-(6-fluoropyridin-3-yl)quinoxalin-6-yl)furan-2-carboxamide] | 
 |  |  |  |  | 97.9 | 57 | 18.2 | 17.2 | 59.3 | 4.44 |  |  | CCNc1cc(-c2ccc(F)nc2)c2nccnc2c1 [Intermediate Compound 6, N-ethyl-8-(6-fluoropyridin-3-yl)quinoxalin-6-amine] | 
96.6 | 41.9 | 40.6 | 5.39 | 4.58 |  |  |  |  |  |  | 88.7 | 85.9 | CCNc1cc(Nc2cc(C)[nH]n2)c2nccnc2c1 [Example 32, N7-ethyl-N5-(5-methyl-1H-pyrazol-3-yl)quinoxaline-5,7-diamine] | 92.91
 |  |  |  |  |  |  |  |  |  | 1.41 |  |  | COc1ccc(CN2C3CC2CN(c2ccc(-c4cc(OCC(C)(C)O)cn5ncc(C#N)c45)cn2)C3)cn1 [Selpercatinib, selpercatinib, reference compound] | 
 |  |  |  |  | 99.5 | 93.5 | 97.4 | 99.4 | 94.9 |  |  |  | O=[N+]([O-])c1cc(-c2ccc(F)nc2)c2nccnc2c1 [Intermediate Compound 15, 5-(6-fluoropyridin-3-yl)-7-nitroquinoxaline] | 
